Patent US6403554B2, “Polyunsaturated fatty acid derivatives and their use” (Ardenia Investments Ltd., priority 1998, dated 2002)

Assays:
[1] = test system: hemagglutinating antibodies in serum; assay: Humoral immune response: titers of hemagglutinating antibodies in serum; assay type: in vivo, C57B1/6 mice; settings: for Amount of hemagglutinins: serum, female mice; for Effect, % on hemagglutinins: versus control
Protocol: (§1) 0.15 ml of compound 10 was administered intravenously to 6 mice females of CS7B1/6 line (weight 18-22 g) in doses of 45.5, 91 and 136.5 μg of compound 10 per capita for each testing group according to the dose. Simultaneously, a suspension of 5·10^7 sheep erythrocytes was injected intraperitoneally (0.2 ml per capita). Mice in the control group were injected intravenously with equal volume of saline. The effects of compound 10 on humoral immune response were analyzed both by counting the quantity of AFC in the spleen according to Cunningham (per 10^6 spleen cells and per spleen) and estimating the titers of hemagglutining antibodies in serum of the animals (Cunningham A. J., Nature, 1965, Vol.207, No 5001. P.1106-1107), while the titers of hemagglutinating antibodies were evaluated according to litterature (Evans J. et al., Cell, 1974; Vol 3., p.153-158, Feizi T., Menger E., Transfusion, 1970, Vol. 10, p.33-35,).
(§2) 0.15 ml of compound 11 was administered intravenously to 6 female mice of the C57B1/6 line (weight 18-22 g) in doses of 45.5, 91 and 136.5 μg of compound 11 per capita for each testing group according to the dose. Simultaneously, a suspension of 5·10^7 sheep erytrocytes was injected intraperitoneally (0.2 ml per capita). Mice in the control group were injected intravenously with an equal volume of saline. The effects of compound 11 on humoral immune response was analysed both by counting the quantity of AFC in the spleen according to Cunningham (per 10^6 spleen cells and per spleen) and estimating the titers of hemagglutining antibodies in serum of the animals.
as §2, with “12” for “11”, “erythrocytes” for “erytrocytes”, “analyzed” for “analysed”
as §2, with “compound 8” for “compound 11”, “sheep erythrocytes” for “sheep erytrocytes”, “Mice of” for “Mice in”, “response were analyzed” for “response was analysed”
as §2, with “compound 3” for “compound 11”, “Mice of” for “Mice in”, “with” for “with an”, “response were” for “response was”
(§3) 0.15 ml of compound 4 was administered intravenously to 6 female mice of the C57B1/6 line (weight 18-22 g) in a doses of 45.5, 91 and 136.5 μg of compound 4 per capita for each testing group according to the dose. Simultaneously, a suspension of 5·10^7 sheep erythrocytes was injected intraperitoneally (0.2 ml per capita). […]

[2] = test system: antibody-forming cells (AFC) in the spleen; assay: Humoral immune response: counting antibody-forming cells (AFC) in the spleen according to Cunningham, mice immunised with sheep erythrocytes; assay type: in vivo, C57B1/6 mice; settings: for Amount of antibody-forming cells per 10^6 spleen cells, M ± SEM (relative amount of AFC) / Amount of antibody-forming cells per spleen, M ± SEM (total AFC amount): 5-th day after injection, female mice; for Effect, % on AFC per 10^6 spleen cells / Effect, % on AFC per spleen: versus animals immunised only with sheep erythrocytes; for immunostimulating action: dose of 136.5 μg/mouse; for Immunogenic activity: doses of 45.5 and 91 μg/mouse
Protocol: as §1, §2
as §2, with “12” for “11”, “erythrocytes” for “erytrocytes”, “analyzed” for “analysed”
as §2, with “compound 8” for “compound 11”, “sheep erythrocytes” for “sheep erytrocytes”, “Mice of” for “Mice in”, “response were analyzed” for “response was analysed”
as §2, with “compound 3” for “compound 11”, “Mice of” for “Mice in”, “with” for “with an”, “response were” for “response was”
as §3

[3] = test system: antibody-forming cells (AFC) in the spleen; assay: Influence of compound on humoral immune response to sheep erythrocytes, C57B1/6 female mice (AFC in spleen, hemagglutinins); assay type: in vivo; settings: for Amount of antibody-forming cells per 10^6 spleen cells / Amount of antibody-forming cells per spleen / Effect on relative amount of AFC (per 10^6 spleen cells) / Effect on total AFC amount (per spleen) / Effect on hemagglutinin titers / Spleen index: i.v.; for Amount of antibody-forming cells per 10^6 spleen cells / Amount of antibody-forming cells per spleen / Effect on relative amount of AFC (per 10^6 spleen cells) / Effect on total AFC amount (per spleen): 5th day; for Amount of antibody-forming cells per 10^6 spleen cells / Amount of antibody-forming cells per spleen: M ± SEM; for Effect on relative amount of AFC (per 10^6 spleen cells) / Effect on total AFC amount (per spleen) / Effect on hemagglutinin titers: vs control; for Spleen index: with SRBC i.p.
Protocol: The increase was calculated as compared with the amount of cells in the animals immunised only with sheep erythrocytes.
as §1, §2
as §2, with “12” for “11”, “erythrocytes” for “erytrocytes”, “analyzed” for “analysed”
as §2, with “compound 8” for “compound 11”, “sheep erythrocytes” for “sheep erytrocytes”, “Mice of” for “Mice in”, “response were analyzed” for “response was analysed”
0.15 ml of compound 3 was administered intravenously to 6 female mice of the C57B1/6 line (weight 18-22 g) in doses of 45.5, 91 and 136.5 μg of compound 3 per capita for each testing group according to the dose. Simultaneously, a suspension of 5·10^7 sheep erytrocytes was injected intraperitoneally (0.2 ml per capita). Mice of the control group were injected intravenously with equal volume of saline.

CC/C=C\C/C=C\C/C=C\CCCCCCCC(=O)N[C@H](C(=O)O)[C@@H](C)OP(=O)(O)O [Compound 19, N-linolenoyl-o-phospho-L-threonine]
Amount of hemagglutinins ([1]; 45.5 μg/mouse i.v.): 8.1 ± 0.3 Log2 T
Amount of hemagglutinins ([1]; 91 μg/mouse i.v.): 8.3 ± 0.4 Log2 T
Amount of hemagglutinins ([1]; 136.5 μg/mouse i.v.): 8.5 ± 0.3 Log2 T

CC1=C(/C=C/C(C)=C/C=C/C(C)=C\C(=O)NCCOP(=O)(O)O)C(C)(C)CCC1 [Compound 1a, N-(13-cis-retinoyl)-o-phospho-2-aminoethanol]
Amount of hemagglutinins ([1]; 45.5 μg/mouse i.v.): 7.6 ± 0.3 Log2 T
Effect, % on hemagglutinins ([1]; 45.5 μg/mouse i.v.): −1,3 p > 0.05%
Amount of hemagglutinins ([1]; 91 μg/mouse i.v.): 7.6 ± 0.2 Log2 T
Effect, % on hemagglutinins ([1]; 91 μg/mouse i.v.): −1,3 p > 0.05%
Amount of hemagglutinins ([1]; 136.5 μg/mouse i.v.): 8.2 ± 0.4 Log2 T
Effect, % on hemagglutinins ([1]; 136.5 μg/mouse i.v.): +6,5 p > 0.05%
Dose at which immunostimulating effect in vivo is displayed (micelle form) ([2]; compound alone): 91 μg/mouse

CC/C=C\C/C=C\C/C=C\C/C=C\C/C=C\C/C=C\CCC(=O)N[C@@H](Cc1ccc(OP(=O)(O)O)cc1)C(=O)O [Compound 12, N-docosahexaenoyl-o-phospho-L-tyrosine]
Amount of hemagglutinins ([1]; 45.5 μg/mouse i.v.): 7.4 ± 0.3 Log2 T
Effect, % on hemagglutinins ([1]; 45.5 μg/mouse i.v.): +2.8 p >0.05%
Amount of hemagglutinins ([1]; 91 μg/mouse i.v.): 7.4 ± 0.3 Log2 T
Effect, % on hemagglutinins ([1]; 91 μg/mouse i.v.): +2.8 p > 0.05%
Amount of hemagglutinins ([1]; 136.5 μg/mouse i.v.): 7.8 ± 0.3 Log2 T
Effect, % on hemagglutinins ([1]; 136.5 μg/mouse i.v.): +7.7 p > 0.05%
Amount of antibody-forming cells per 10^6 spleen cells, M ± SEM (relative amount of AFC) ([2]; 45.5 μg/mouse i.v.): 263.8±23.6
Amount of antibody-forming cells per spleen, M ± SEM (total AFC amount) ([2]; 45.5 μg/mouse i.v.): 31.8±2.8 × 10^3
Effect, % on AFC per 10^6 spleen cells ([2]; 45.5 μg/mouse i.v.): −9.4 p >0.05%
Effect, % on AFC per spleen ([2]; 45.5 μg/mouse i.v.): −9.1 p >0.05%
Amount of antibody-forming cells per 10^6 spleen cells, M ± SEM (relative amount of AFC) ([2]; 91 μg/mouse i.v.): 307.8±30.9
Amount of antibody-forming cells per spleen, M ± SEM (total AFC amount) ([2]; 91 μg/mouse i.v.): 40.2±2.7 × 10^3
Effect, % on AFC per 10^6 spleen cells ([2]; 91 μg/mouse i.v.): +5.7 p > 0.05%
Effect, % on AFC per spleen ([2]; 91 μg/mouse i.v.): +14.9 p > 0.05%
Amount of antibody-forming cells per 10^6 spleen cells, M ± SEM (relative amount of AFC) ([2]; 136.5 μg/mouse i.v.): 682.6±33.3
Amount of antibody-forming cells per spleen, M ± SEM (total AFC amount) ([2]; 136.5 μg/mouse i.v.): 69.6±6.0 × 10^3
immunostimulating action [2]: high immunostimulating action
Immunogenic activity [2]: no immunogenic activity

CC/C=C\C/C=C\C/C=C\CCCCCCCC(=O)NCCOP(=O)(O)O [Compound 17, N-linolenoyl-o-phospho-2-aminoethanol]
Effect, % on hemagglutinins ([1]; 91 μg/mouse i.v.): +2.6 p > 0.05%
Effect, % on hemagglutinins ([1]; 136.5 μg/mouse i.v.): +2.6 p > 0.05%
Amount of antibody-forming cells per 10^6 spleen cells, M ± SEM (relative amount of AFC) ([2]; 45.5 μg/mouse i.v.): 457.3±40.7
Amount of antibody-forming cells per spleen, M ± SEM (total AFC amount) ([2]; 45.5 μg/mouse i.v.): 51.1±4.4 × 10^3
Effect, % on AFC per 10^6 spleen cells ([2]; 45.5 μg/mouse i.v.): −3.0 p > 0.05%
Effect, % on AFC per spleen ([2]; 45.5 μg/mouse i.v.): −7.4 p > 0.05%
Amount of antibody-forming cells per 10^6 spleen cells, M ± SEM (relative amount of AFC) ([2]; 91 μg/mouse i.v.): 523.8±45.3
Amount of antibody-forming cells per spleen, M ± SEM (total AFC amount) ([2]; 91 μg/mouse i.v.): 63.5±5.1 × 10^3
Effect, % on AFC per 10^6 spleen cells ([2]; 91 μg/mouse i.v.): +11.1 p > 0.05%
Effect, % on AFC per spleen ([2]; 91 μg/mouse i.v.): +15.0 p > 0.05%
Amount of antibody-forming cells per 10^6 spleen cells, M ± SEM (relative amount of AFC) ([2]; 136.5 μg/mouse i.v.): 619.6±38.9
Amount of antibody-forming cells per spleen, M ± SEM (total AFC amount) ([2]; 136.5 μg/mouse i.v.): 71.6±4.7 × 10^3
immunostimulating action [2]: marked immunostimulating action
Immunogenic activity [2]: no immunogenic activity

CC/C=C\C/C=C\C/C=C\CCCCCCCC(=O)N[C@H](C(=O)O)[C@@H](C)OP(=O)(O)O [Compound 19, N-(cis-9,12,15-octadecatrienoyl)-O-phospho-L-threonine]
Amount of antibody-forming cells per 10^6 spleen cells ([3]; 45.5 μg/mouse): 454.7±57.9 cells per 10^6 spleen cells
Amount of antibody-forming cells per spleen ([3]; 45.5 μg/mouse): 48.8±6.4 × 10^3
Effect on relative amount of AFC (per 10^6 spleen cells) ([3]; 45.5 μg/mouse): +4.3 p > 0.05%
Effect on total AFC amount (per spleen) ([3]; 45.5 μg/mouse): +5.4 p > 0.05%
Effect on hemagglutinin titers ([3]; 45.5 μg/mouse): +1,3 p > 005%
Spleen index ([3]; 45.5 μg/mouse): 6.2 ± 10^−3
Amount of antibody-forming cells per 10^6 spleen cells ([3]; 91 μg/mouse): 473.2±44.5 cells per 10^6 spleen cells
Amount of antibody-forming cells per spleen ([3]; 91 μg/mouse): 51.2±6.1 × 10^3
Effect on relative amount of AFC (per 10^6 spleen cells) ([3]; 91 μg/mouse): +8.6 p > 0.05%
Effect on total AFC amount (per spleen) ([3]; 91 μg/mouse): +10.6 p > 0.05%
Effect on hemagglutinin titers ([3]; 91 μg/mouse): +3.8 p > 0.05%
Spleen index ([3]; 91 μg/mouse): 6.4 ± 10^−3
immunostimulating action ([3]; 136.5 μg/mouse): marked immunostimulating action
Amount of antibody-forming cells per 10^6 spleen cells ([3]; 136.5 μg/mouse): 612.5±47.3 cells per 10^6 spleen cells
Amount of antibody-forming cells per spleen ([3]; 136.5 μg/mouse): 64.7±4.9 × 10^3
Effect on hemagglutinin titers ([3]; 136.5 μg/mouse): +6.3 p > 0.05%
Spleen index ([3]; 136.5 μg/mouse): 6.5 ± 10^−3
Immunogenic activity ([3]; 45.5 and 91 μg/mouse): no immunogenic activity

CC/C=C\C/C=C\C/C=C\C/C=C\C/C=C\C/C=C\CCC(=O)N[C@H](C(=O)O)[C@@H](C)OP(=O)(O)O [Compound 11, N-docosahexaenoyl-o-phospho-L-threonine]
Amount of hemagglutinins ([1]; 45.5 μg/mouse i.v.): 8.3 ± 0.3 Log2 T
Amount of hemagglutinins ([1]; 91 μg/mouse i.v.): 8.0 ± 0.5 Log2 T
Amount of hemagglutinins ([1]; 136.5 μg/mouse i.v.): 9.3 ± 0.2 Log2 T

CC/C=C\C/C=C\C/C=C\C/C=C\C/C=C\CCCC(=O)NCCOP(=O)(O)O [Compound 13, N-eicosapentaenoyl-o-phospho-2-aminoethanol]
Amount of hemagglutinins ([1]; 45.5 μg/mouse i.v.): 9.7 ± 1.2 Log2 T
Amount of hemagglutinins ([1]; 91 μg/mouse i.v.): 9.5 ± 1.2 Log2 T
Amount of hemagglutinins ([1]; 136.5 μg/mouse i.v.): 10.3 ± 0.9 Log2 T

CC1=C(/C=C/C(C)=C/C=C/C(C)=C/C(=O)N[C@@H](Cc2ccc(OP(=O)(O)O)cc2)C(=O)O)C(C)(C)CCC1 (stereo in doubt) [Compound 4, N-(all-trans-Retinoyl)-O-phospho-L-tyrosine]
Immunogenic activity ([3]; 45.5 μg/mouse): no immunogenic activity
Amount of antibody-forming cells per 10^6 spleen cells ([3]; 45.5 μg/mouse): 405.0±47.9 cells per 10^6 spleen cells
Amount of antibody-forming cells per spleen ([3]; 45.5 μg/mouse): 55.0±6.7 × 10^3
Effect on relative amount of AFC (per 10^6 spleen cells) ([3]; 45.5 μg/mouse): −0.3 p >0.05%
Effect on total AFC amount (per spleen) ([3]; 45.5 μg/mouse): −8.9 p > 0.05%
Effect on hemagglutinin titers ([3]; 45.5 μg/mouse): −3.2 p > 0.05%
Spleen index ([3]; 45.5 μg/mouse): 6.6 ± 0.5 10^−3
immunostimulating effect in vivo in micelle form ([3]; 91 μg/mouse): display immunostimulating effect in vivo
Amount of antibody-forming cells per 10^6 spleen cells ([3]; 91 μg/mouse): 692.9±44.8 cells per 10^6 spleen cells
Amount of antibody-forming cells per spleen ([3]; 91 μg/mouse): 87.6±4.3 × 10^3
Effect on hemagglutinin titers ([3]; 91 μg/mouse): +4.8 p > 0.05%
Spleen index ([3]; 91 μg/mouse): 6.3 ± 0.4 10^−3
Amount of antibody-forming cells per 10^6 spleen cells ([3]; 136.5 μg/mouse): 1354.3±99.9 cells per 10^6 spleen cells
Amount of antibody-forming cells per spleen ([3]; 136.5 μg/mouse): 138.9±10.0 × 10^3
immunostimulating action ([3]; 91 and 136.5 μg/mouse): high immunostimulating action
